The subject of assay [1] is human colon cancer cells (HT-29). Nature of the assay: SRB proliferation assay, human colon cancer cells (HT-29). It is filed as cell-based. The conditions noted are these: HT-29, 72 hr, read-out: IC50 against HT-29 cells. The source says: (§1) The pharmacodynamic action of the compound of the present invention in terms of inhibiting the proliferation of cancer cells may be assayed by conventional methods, one preferable evaluation method of which is Sulforhodamine B (SRB) protein staining method, which calculates the inhibition ratio of a drug against the proliferation of cancer cells through measuring the change in optical absorption value generated after the drug has influenced the cancer cells. Inhibition ratio (%)=(OD control−OD inhibitor−OD blank)/(OD control−OD blank)×100%
(§2) The median inhibitory concentration (IC50) value is obtained by the software GraphPad Prism 5 through calculation.
(§3) The human breast cancer cells in the logarithmic phase were inoculated to 96-well culture plates (180 μl/well) at a density of about 5500/well. The well for each concentration was triplicated. Solvent control wells of corresponding concentrations and apoptosis-free wells were also established. After adherent growth for 24 hr, the compounds of the present invention were added at 20 μl/well, and the cells were cultured for 72 hr under the conditions of 10% Hyclone fetal calf serum, 37° C., 5% CO2. […]
According to the experimental method of Test Example 1, the IC50 value of the compound of the present invention against HT-29 cells was calculated as: […]

The subject of assay [2] is human breast cancer cells (MDA-MB-231). In words: SRB proliferation assay, human breast cancer cells (MDA-MB-231). The class given is cell-based. The conditions noted are these: MDA-MB-231, 72 hr, read-out: IC50 against MDA-MB-231 cells.
Source text: as §1
OD control: the OD value of the well of normally grown cells without the action of a drug.
OD inhibitor: the OD value of the well of cells with the action of added compounds to be screened.
OD blank: the OD value of the well of parallel control without seeding cells.
as §2
The human breast cancer cells in the logarithmic phase were inoculated to 96-well culture plates (180 μl/well) at a density of about 5500/well. The well for each concentration was triplicated. Solvent control wells of corresponding concentrations and apoptosis-free wells were also established. […]
(The SRB assay estimates cell density from bound dye.)

The target in assay [3] is c-Met receptor (Homo sapiens (Human), UniProt P08581). Nature of the assay: Western blot test of c-Met phosphorylation in EGF-stimulated H1975 cells. It is filed as cell-based. The conditions noted are these: EGF induction, 1 μM and 5 μM, 6 hr. The protocol: The human lung cancer cells (H1975) in the logarithmic phase were inoculated to 6-well culture plates at a density of about 4×10^5/well. The cells were adherently grown for 24 hr. Four wells were selected, wherein two wells were added with the compound of Example 2 respectively (1 μM/well and 5 μM/well). The other two wells were not added with drugs. The cells were cultured for 6 hr under the conditions of 10% Hyclone fetal calf serum, 37° C., 5% CO2. EGF was added to the above two wells and one of the drug-free well to stimulate for 15 min. After the cells were washed with cold PBS, sample loading buffer (2×SDS Lysis Buffer+1M DTT+H2O) was added to lyse the cells. The lysate of the cells was heated for 10 min at 100° C., centrifuged for 5 min at 12000 g, and the supernatant was took out. The supernatant was subjected to SDS-PAGE electrophoretic analysis. At 25 mA constant current, after wetly transferred for 2 h, the proteins were transferred to PVDF (polyvinylidine difluoride) membrance. The PVDF membrance was took out, incubated with the corresponding primary antibody (pMet) at 4° C. overnight. […] After washing with TBST for 3 times, images were developed with ECL luminescence kit, and were mounted. […]

Assay [4] has as its target receptor tyrosine kinase c-Met (c-Met kinase domain recombination protein) (Homo sapiens (Human), UniProt P08581). In words: Enzyme linked immunosorbent assay (ELISA) of c-Met kinase activity. It is filed as biochemical. The settings on record: for IC50: c-Met enzyme, ELISA, read-out: IC50 (nM) mean ± SD. The procedure:
The evaluation of the inhibition of the compound of the present invention on the activity of c-Met enzyme in molecular level may be assayed by conventional methods, one preferable evaluation method of which is enzyme-linked immunosorbent assay (ELISA). By measuring the inhibition ratio of the compounds against the activity of receptor tyrosine kinase protein c-Met enzyme, the median inhibitory concentration IC50 is calculated based on the inhibition ratios for various concentrations using the four-parameter method. The inhibition ratio for a sample (%)=(1−(OD value of a compound−OD value of the control well without enzyme)/(OD value of the negative control well−OD value of the control well without enzyme))×100%
(1) The enzyme reaction substrate Poly(Glu, Tyr) 4:1 was diluted to 20 μg/mL, 1254/well coated enzyme label plate with potassium ion-free PBS (10 mM sodium phosphate buffer, 150 mM NaCl, pH7.2-7.4), which was placed at 37° C. to allow to react for 12-16 h. The liquid in the wells was discarded. The plate was washed with 200 μL/well of T-PBS (potassium ion-free PBS containing 0.1% Tween-20) for three times (each for 5 min). The enzyme label plate was placed into a drying oven at 37° C. to dry for 1-2 h.
(2) To each well was added 50 µL of ATP solution diluted with reaction buffer (50 mM HEPES pH 7.4, 50 mM MgCl2, 0.5 mM MnCl2, 0.2 mM Na3VO4, 1 mM DTT), and to each well was added 1 μL of the compounds. When adding the test compounds, 6 concentration gradients were set for each compound (the starting concentrations and dilution times were determined according to the results of preliminary screening so as to ensure that the maximum inhibition ratio was about 80% and the minimum inhibition ratio was about 20%, and more than two concentration points were in the vicinity of 50% inhibition ratio), and then 504 of c-Met kinase domain recombination protein diluted with reaction buffer was added to initiate the reaction. Two ATP-free control wells were needed for each of the experiments. The reaction was placed on a shaking table at 37° C. (100 rpm) for 1 h. The liquid in the wells was discarded and the plate was washed with T-PBS for three times.
(3) The antibody PY99 was added at 1004/well (the antibody was diluted with T-PBS containing BSA (5 mg/mL) in 1:500). The reaction was performed on a shaking table at 37° C. for 0.5 h. The liquid in the wells was discarded and the plate was washed with T-PBS for three times.
(4) The horseradish peroxidase-labeled goat anti-mouse secondary antibody was added at 100 μL/well (the antibody was diluted with T-PBS containing BSA (5 mg/mL) in 1:2000), The reaction was performed on a shaking table at 37° C. for 0.5 h. The liquid in the wells was discarded and the plate was washed with T-PBS for three times.
(5) 2 mg/ml of OPD colour developing solution (diluted with 0.1M citric acid-sodium citrate buffer (pH=5.4) containing 0.03% H2O2) was added at 1004/well, and the reaction was performed at 25° C. for 1-10 min under protection from light.
(6) 2M H2SO4 was added at 50 μL/well to terminate the reaction, and the values were read by a microplate reader VERSAmax with adjustable wavelength, wherein the wavelength was 490 nm. Through calculation, the inhibitory IC50 values of the compounds of Example 2, 12 and 13 against the activity of receptor tyrosine kinase c-Met enzyme were obtained as: […]

In assay [5] the test system is human lung cancer cells (H1975). Nature of the assay: SRB proliferation assay, human lung cancer cells (H1975). It is filed as cell-based. The conditions noted are these: NCI-H1975, H1975, 72 hr, read-out: IC50 against H1975 cells.
Source text: as §1, §2, §3
According to the experimental method of Test Example 1, the IC50 value of the compound of the present invention against H1975 cells was calculated as: […]

Sequence of receptor tyrosine kinase c-Met (c-Met kinase domain recombination protein) (P08581 1078-1345): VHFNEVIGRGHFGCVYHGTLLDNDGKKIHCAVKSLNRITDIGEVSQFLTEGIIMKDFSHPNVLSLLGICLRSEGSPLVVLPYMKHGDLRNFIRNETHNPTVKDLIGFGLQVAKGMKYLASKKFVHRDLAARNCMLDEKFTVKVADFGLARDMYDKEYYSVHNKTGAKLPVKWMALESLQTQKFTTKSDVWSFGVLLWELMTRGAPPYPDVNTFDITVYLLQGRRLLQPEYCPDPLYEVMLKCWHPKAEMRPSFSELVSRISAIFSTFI
Sequence of c-Met receptor (P08581 25-1390): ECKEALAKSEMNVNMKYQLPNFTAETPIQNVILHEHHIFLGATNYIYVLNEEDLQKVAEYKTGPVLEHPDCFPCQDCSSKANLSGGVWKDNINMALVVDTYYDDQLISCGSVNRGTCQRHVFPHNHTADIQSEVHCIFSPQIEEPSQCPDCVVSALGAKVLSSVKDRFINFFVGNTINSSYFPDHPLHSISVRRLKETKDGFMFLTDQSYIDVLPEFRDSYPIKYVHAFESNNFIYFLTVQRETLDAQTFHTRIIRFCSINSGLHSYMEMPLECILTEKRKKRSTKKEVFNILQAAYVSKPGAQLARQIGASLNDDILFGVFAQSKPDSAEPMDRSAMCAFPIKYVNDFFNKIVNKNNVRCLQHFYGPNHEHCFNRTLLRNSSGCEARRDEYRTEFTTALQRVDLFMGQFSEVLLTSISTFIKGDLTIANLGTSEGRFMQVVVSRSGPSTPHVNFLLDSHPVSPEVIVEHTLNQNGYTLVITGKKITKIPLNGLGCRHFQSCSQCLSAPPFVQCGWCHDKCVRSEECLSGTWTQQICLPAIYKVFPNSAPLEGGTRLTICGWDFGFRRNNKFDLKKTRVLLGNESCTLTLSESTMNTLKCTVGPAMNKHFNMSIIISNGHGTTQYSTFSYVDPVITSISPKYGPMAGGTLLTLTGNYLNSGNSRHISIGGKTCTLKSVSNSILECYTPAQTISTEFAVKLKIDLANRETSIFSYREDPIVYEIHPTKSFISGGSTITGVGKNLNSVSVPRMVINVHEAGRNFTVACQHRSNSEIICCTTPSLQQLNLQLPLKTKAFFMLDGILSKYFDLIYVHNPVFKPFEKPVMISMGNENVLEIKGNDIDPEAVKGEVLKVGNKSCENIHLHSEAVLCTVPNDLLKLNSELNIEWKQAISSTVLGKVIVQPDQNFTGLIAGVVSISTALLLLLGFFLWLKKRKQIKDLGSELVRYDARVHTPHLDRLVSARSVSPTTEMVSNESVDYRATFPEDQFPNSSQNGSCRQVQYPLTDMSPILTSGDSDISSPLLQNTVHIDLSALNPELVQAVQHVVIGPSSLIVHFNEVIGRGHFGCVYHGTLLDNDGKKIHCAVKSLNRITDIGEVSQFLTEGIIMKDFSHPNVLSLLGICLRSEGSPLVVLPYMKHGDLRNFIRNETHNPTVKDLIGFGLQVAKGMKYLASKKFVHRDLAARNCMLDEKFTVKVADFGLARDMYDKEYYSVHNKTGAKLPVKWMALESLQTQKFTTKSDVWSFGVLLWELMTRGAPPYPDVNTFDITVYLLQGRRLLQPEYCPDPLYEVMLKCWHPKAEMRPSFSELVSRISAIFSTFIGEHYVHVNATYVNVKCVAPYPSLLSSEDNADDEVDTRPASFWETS

A word on the IC50: it is the concentration that inhibits the measured activity by half. Take `CC(Oc1cc(-c2cn(C3CCNCC3)nn2)cnc1N)c1c(Cl)ccc(F)c1Cl` (stereo not shown) [Example 2, 3-(1-(2,6-dichloro-3-fluorophenyl)ethoxy)-5-(1-(piperidin-4-yl)-1H-1,2,3-triazol-4-yl)-2-aminopyridine]: the IC50 in assay [1] is 5260 nM; in assay [2] it was 9530 nM; in assay [4] it was 6.7 ± 2.3 nM; in assay [5] it was 11700 nM. Moreover, the “inhibition of the phosphorylation of c-Met receptor” value in assay [3] is “effectively inhibit”. Besides, the “Average inhibition ratio (%)” value in assay [4] (0.8 nM) is on record as 8.4%; in assay [4] (2 nM) it was 26.9%; in assay [4] (7 nM), 51.0%; in assay [4] (22 nM), 69.9%; in assay [4] (66 nM), 76.8%; in assay [4] (200 nM), 78.0%.

Turning to `C[C@H](Oc1cc(-c2cn(C3CCNCC3)nn2)cnc1N)c1c(Cl)ccc(F)c1Cl` [Example 12], the “Average inhibition ratio (%)” value in assay [4] (0.8 nM) is 7.9%; in assay [4] (2 nM), 18.2%; in assay [4] (7 nM) it was 39.8%; in assay [4] (22 nM) it was 61.7%; in assay [4] (66 nM) it was 76.3%; in assay [4] (200 nM) it was 77.5%. Moreover, the IC50 in assay [4] was found to be 11.7 ± 2.3 nM.

In the case of `C[C@@H](Oc1cc(-c2cn(C3CCNCC3)nn2)cnc1N)c1c(Cl)ccc(F)c1Cl` [Example 13, (R)-3-(1-(2,6-dichloro-3-fluorophenyl)ethoxy)-5-(1-(piperidin-4-yl)-1H-1,2,3-triazol-4-yl)-2-aminopyridine], the “Average inhibition ratio (%)” value in assay [4] (0.8 nM) stood at 31.1%; in assay [4] (2 nM), 62.2%; in assay [4] (7 nM), 67.7%; in assay [4] (22 nM), 79.7%; in assay [4] (66 nM), 88.0%; in assay [4] (200 nM), 88.2%. Besides, the IC50 in assay [4] is 1.7 ± 0.4 nM.

The record behind these values is patent US8952002B2, “Aminoheteroaryl compounds and preparation method and use thereof” (Shanghai Allist Pharmaceuticals, Inc., priority 2012, dated 2015).
